Measurements: BigSolDB 2.1

CC[C@H](CC[C@@H](C)[C@H]1CC[C@H]2[C@@H]3CC=C4C[C@@H](O)CC[C@]4(C)[C@H]3CC[C@]12C)C(C)C
solubility (mole fraction)
Conditions	in acetone	in ethanol	in ethyl acetate	in methanol	in n-hexane
278.15 K	0.00274	0.0013	0.00447	0.000136	0.000862
283.15 K	0.00322	0.00158	0.0053	0.000167	0.00103
288.15 K	0.00379	0.0019	0.00627	0.000205	0.00123
293.15 K	0.00446	0.00229	0.00738	0.000248	0.00147
298.15 K	0.00525	0.00274	0.00872	0.000299	0.00173
303.15 K	0.00616	0.00328	0.0103	0.000357	0.00205
308.15 K	0.00724	0.00389	0.012	0.000427	0.0024
313.15 K	0.00852	0.0046	0.014	0.000509	0.0028
318.15 K	0.01	0.0054	0.0163	0.000606	0.00326
323.15 K	0.0118	0.00632	0.019	0.00072	0.00377
328.15 K	0.0139	0.00738	–	0.000855	0.00436
333.15 K	–	0.00856	–	–	0.005
